PubChem BioAssay (NCI)
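Dose response: 5 concentrations. Exposure: 48 h. Format: 96-well plates. Endpoint: linear interpolation; highest concentration if not reached. GI50 is the concentration that inhibits growth by half. TGI: total growth inhibition.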

Assays:
Assay in all cases: growth of human tumour cells (NCI), 48 h
T-47D breast = system: T-47D breast
SW-620 colon = system: SW-620 colon
LOX IMVI melanoma = system: LOX IMVI melanoma
CCRF-CEM leukemia = system: CCRF-CEM leukemia
HL-60(TB) leukemia = system: HL-60(TB) leukemia
OVCAR-5 ovarian = system: OVCAR-5 ovarian
786-0 renal = system: 786-0 renal
UO-31 renal = system: UO-31 renal
NCI-H522 lung = system: NCI-H522 lung
SK-MEL-5 melanoma = system: SK-MEL-5 melanoma
PC-3 prostate = system: PC-3 prostate
A549 NSCLC = system: A549 NSCLC
BT-549 breast = system: BT-549 breast
SF-539 CNS = system: SF-539 CNS
MCF7 breast = system: MCF7 breast
HT29 colon = system: HT29 colon
MOLT-4 leukemia = system: MOLT-4 leukemia
KM12 colon = system: KM12 colon
HCT-116 colon = system: HCT-116 colon
SF-268 CNS = system: SF-268 CNS
NCI/ADR-RES ovarian = system: NCI/ADR-RES ovarian
RPMI-8226 leukemia = system: RPMI-8226 leukemia
OVCAR-8 ovarian = system: OVCAR-8 ovarian
NCI-H226 lung = system: NCI-H226 lung
SR leukemia = system: SR leukemia
ACHN renal = system: ACHN renal
CAKI-1 renal = system: CAKI-1 renal
NCI-H460 lung = system: NCI-H460 lung
HOP-62 NSCLC = system: HOP-62 NSCLC
OVCAR-3 ovarian = system: OVCAR-3 ovarian
M14 melanoma = system: M14 melanoma
U251 CNS = system: U251 CNS
MDA-MB-231 breast = system: MDA-MB-231 breast
HCC-2998 colon = system: HCC-2998 colon
K-562 leukemia = system: K-562 leukemia
SK-MEL-28 melanoma = system: SK-MEL-28 melanoma
TK-10 renal = system: TK-10 renal
SNB-19 CNS = system: SNB-19 CNS
IGROV1 ovarian = system: IGROV1 ovarian
SN12C renal = system: SN12C renal
SNB-75 CNS = system: SNB-75 CNS
UACC-257 melanoma = system: UACC-257 melanoma
OVCAR-4 ovarian = system: OVCAR-4 ovarian
MALME-3M melanoma = system: MALME-3M melanoma
A498 renal = system: A498 renal
NCI-H23 lung = system: NCI-H23 lung
DU-145 prostate = system: DU-145 prostate
SK-OV-3 ovarian = system: SK-OV-3 ovarian
MDA-MB-435 = system: MDA-MB-435
COLO 205 colon = system: COLO 205 colon
EKVX NSCLC = system: EKVX NSCLC
SK-MEL-2 melanoma = system: SK-MEL-2 melanoma
UACC-62 melanoma = system: UACC-62 melanoma
HCT-15 colon = system: HCT-15 colon
HOP-92 NSCLC = system: HOP-92 NSCLC
HS 578T breast = system: HS 578T breast
SF-295 CNS = system: SF-295 CNS

Cn1ncc2ncc(-c3ccc4ncc(C#N)c(N5CCc6cc(F)c(Cl)cc65)c4c3)cc21
GI50 (T-47D breast): 2.03 µM | TGI (T-47D breast): 31.1 µM | GI50 (SW-620 colon): 7.04 µM | TGI (SW-620 colon): > 100 µM | GI50 (LOX IMVI melanoma): 2.26 µM | TGI (LOX IMVI melanoma): 38.4 µM | GI50 (CCRF-CEM leukemia): 4.62 µM | TGI (CCRF-CEM leukemia): > 100 µM | GI50 (HL-60(TB) leukemia): 7.84 µM | TGI (HL-60(TB) leukemia): > 100 µM | GI50 (OVCAR-5 ovarian): 3.71 µM | TGI (OVCAR-5 ovarian): > 100 µM | GI50 (786-0 renal): 4.13 µM | TGI (786-0 renal): > 100 µM | GI50 (UO-31 renal): 0.251 µM | TGI (UO-31 renal): 10.5 µM | GI50 (NCI-H522 lung): 3.28 µM | TGI (NCI-H522 lung): > 100 µM | GI50 (SK-MEL-5 melanoma): 6.97 µM | TGI (SK-MEL-5 melanoma): 21.9 µM | GI50 (PC-3 prostate): 2.27 µM | TGI (PC-3 prostate): > 100 µM | GI50 (A549 NSCLC): 4.05 µM | TGI (A549 NSCLC): > 100 µM | GI50 (BT-549 breast): 3.75 µM | TGI (BT-549 breast): 85.6 µM | GI50 (SF-539 CNS): 3.78 µM | TGI (SF-539 CNS): 61.7 µM | GI50 (MCF7 breast): 2.44 µM | TGI (MCF7 breast): > 100 µM | GI50 (HT29 colon): 3.82 µM | TGI (HT29 colon): > 100 µM | GI50 (MOLT-4 leukemia): 3.01 µM | TGI (MOLT-4 leukemia): > 100 µM | GI50 (KM12 colon): 5.35 µM | TGI (KM12 colon): > 100 µM | GI50 (HCT-116 colon): 9.79 µM | TGI (HCT-116 colon): > 100 µM | GI50 (SF-268 CNS): 4.11 µM | TGI (SF-268 CNS): > 100 µM | GI50 (NCI/ADR-RES ovarian): 3.27 µM | TGI (NCI/ADR-RES ovarian): > 100 µM | GI50 (RPMI-8226 leukemia): 3.28 µM | TGI (RPMI-8226 leukemia): > 100 µM | GI50 (OVCAR-8 ovarian): 4.47 µM | TGI (OVCAR-8 ovarian): > 100 µM | GI50 (NCI-H226 lung): 1.86 µM | TGI (NCI-H226 lung): 20.9 µM | GI50 (SR leukemia): 3.67 µM | TGI (SR leukemia): > 100 µM | GI50 (ACHN renal): 2.49 µM | TGI (ACHN renal): > 100 µM | GI50 (CAKI-1 renal): 2.31 µM | TGI (CAKI-1 renal): 79 µM | GI50 (NCI-H460 lung): 4.93 µM | TGI (NCI-H460 lung): > 100 µM | GI50 (HOP-62 NSCLC): 2.74 µM | TGI (HOP-62 NSCLC): > 100 µM | GI50 (OVCAR-3 ovarian): 2.66 µM | TGI (OVCAR-3 ovarian): 83.6 µM | GI50 (M14 melanoma): 6.02 µM | TGI (M14 melanoma): > 100 µM | GI50 (U251 CNS): 5.46 µM | TGI (U251 CNS): > 100 µM | GI50 (MDA-MB-231 breast): 2.6 µM | TGI (MDA-MB-231 breast): 28.1 µM | GI50 (HCC-2998 colon): 3.26 µM | TGI (HCC-2998 colon): > 100 µM | GI50 (K-562 leukemia): 4.73 µM | TGI (K-562 leukemia): > 100 µM | GI50 (SK-MEL-28 melanoma): 4.92 µM | TGI (SK-MEL-28 melanoma): > 100 µM | GI50 (TK-10 renal): 9.02 µM | TGI (TK-10 renal): > 100 µM | GI50 (SNB-19 CNS): 6.72 µM | TGI (SNB-19 CNS): > 100 µM | GI50 (IGROV1 ovarian): 1.22 µM | TGI (IGROV1 ovarian): 4.61 µM | GI50 (SN12C renal): 1.93 µM | TGI (SN12C renal): > 100 µM | GI50 (SNB-75 CNS): 0.769 µM | TGI (SNB-75 CNS): 5.47 µM | GI50 (UACC-257 melanoma): 9.46 µM | TGI (UACC-257 melanoma): > 100 µM | GI50 (OVCAR-4 ovarian): 2.64 µM | TGI (OVCAR-4 ovarian): 31.5 µM | GI50 (MALME-3M melanoma): 2.14 µM | TGI (MALME-3M melanoma): 14.9 µM | GI50 (A498 renal): 2.61 µM | TGI (A498 renal): 7.7 µM | GI50 (NCI-H23 lung): 4.8 µM | TGI (NCI-H23 lung): > 100 µM | GI50 (DU-145 prostate): 4.05 µM | TGI (DU-145 prostate): > 100 µM | GI50 (SK-OV-3 ovarian): 2.71 µM | TGI (SK-OV-3 ovarian): > 100 µM | GI50 (MDA-MB-435): 3.13 µM | TGI (MDA-MB-435): 11.8 µM | GI50 (COLO 205 colon): 5.8 µM | TGI (COLO 205 colon): > 100 µM | GI50 (EKVX NSCLC): 2.35 µM | TGI (EKVX NSCLC): 14.6 µM | GI50 (SK-MEL-2 melanoma): 5.65 µM | TGI (SK-MEL-2 melanoma): 37.7 µM | GI50 (UACC-62 melanoma): 1.65 µM | TGI (UACC-62 melanoma): 11.7 µM | GI50 (HCT-15 colon): 3.49 µM | TGI (HCT-15 colon): > 100 µM | GI50 (HOP-92 NSCLC): 2.27 µM | TGI (HOP-92 NSCLC): 8.75 µM | GI50 (HS 578T breast): 1.44 µM | TGI (HS 578T breast): 5.41 µM | GI50 (SF-295 CNS): 2.57 µM | TGI (SF-295 CNS): > 100 µM
